Laboratory results: US20140106967A1, “AUXIN PLANT GROWTH REGULATORS” (The Governors of The University of Alberta, priority 2011, published 2014)

Tested on: Pisum sativum L. cv. Carneval
Experiment: Field study, seed yield of pea 'Carneval' (Table P1)
Assay type: in vivo
Conditions: for Seed yield per 1 meter row: sprayed at about 5% first flower
Text: In a field study, pea (Pisum sativum L. cv. Carneval) seed with a germination rate assessed at greater than 95% was planted on May 11, 2011 into black-loam soil that had been clean-cultivated for two previous growing seasons located at the Edmonton Research Station (ER31) of the University of Alberta, Edmonton, Alberta, Canada. The treatment plots measured 2 m wide by 3 m long, comprising rows 50 cm apart. The seeds were precision-drilled by hand at 5 cm intervals in each row. At the time of seeding, fresh TagTeam® granular rhizobial inoculant was drilled with the seed at the rate of 1.11 g per 6 m^2. No herbicides or pesticides were used during this study and plots were manually weeded to maintain weed-free plots. Seed emergence began on May 26, 2011 (15 days post-planting) due to cool temperature conditions after planting. Precipitation during the growing season was within the regional average. The treatments consisted of one application of aqueous 4-methyl-indole-3-acetic acid (4-ME-IAA) solutions at 1×10^−6M, 1×10^−5M, 5×10^−5M, or 1×10^−4M in 0.1% (v/v) Tween 80, or an aqueous control solution (0.1% [v/v] Tween 80) applied to the plants on Jul. 10, 2011, when about 5% of the plants were in first flower (1 treatment per plot; 5 treatments/plots total). A separate Chapin 20000-type 4 L pneumatic sprayer was used for applying each treatment solution; each sprayer was equipped with a medium-delivery blue fan nozzle designed to deliver 1.4 L per minute at the normal operating pressure of 40 PSI. Each plot was sprayed with a total of 0.7 L of solution to obtain uniform coverage. At the time of spraying, the mean day temperature was 15.9° C., the mean wind speed was 7 km/h, the relative humidity was 86%, and the sky was overcast. Harvesting (by hand) took place Aug. 27 to 30, 2011 after the plants had desiccated naturally. The pods were further dried for six days in a forced-air drier at 30° C. prior to obtaining seed weights. Each plot was harvested in eight groups of 20 contiguous plants arranged so that each group (1 m section of row) had at least two plants immediately next to it at each end. The treatment replication unit was 20 contiguous plants as diagramed in Figure P1. As the between-row spacing was 50 cm, the yield from each group represented that from 0.5 m^2

Cc1cccc2[nH]cc(CC(=O)O)c12 [4-ME-IAA, 4-methyl-indole-3-acetic acid]
increase in seed yield vs control (1×10^−4 M): 28% | Seed yield per 1 meter row (1×10^−4 M): 123.20 ± 9.19 g | Seed yield per 1 meter row (1×10^−5 M): 105.63 ± 10.72 g | increase in seed yield vs control (1×10^−6 M): 43% | Seed yield per 1 meter row (1×10^−6 M): 137.84 ± 10.16 g | Seed yield per 1 meter row (5×10^−5 M): 78.85 ± 12.06 g
